Results published in patent US8063096B2, “Spirocyclic 3-phenyl-3substituted-4-ketolactams and-lactones” (Bayer Cropscience AG, priority 2001, dated 2011).
Like-named read-outs stand apart in the source and are kept apart here.

Columns and labels:
Phaedon cochleariae = assay: Phaedon larvae test; assay type: in vivo; settings: 500 ppm active compound, cabbage leaves dipped
Description: (§1) [table] To produce a suitable preparation of active compound, 1 part by weight of active compound is mixed with the stated amounts of solvent and emulsifier, and the concentrate is diluted with emulsifier-containing water to the desired concentration. Cabbage leaves (Brassica oleracea) are treated by being dipped into the preparation of active compound of the desired concentration and are populated with larvae of the mustard beetle (Phaedon cochleariae) while leaves are still moist. After the desired period of time, the kill in % is determined. 100% means that all beetle larvae have been killed; 0% means that none of the beetle larvae have been killed.

Meloidogyne incognita = assay: Meloidogyne test (gall formation on lettuce roots); assay type: in vivo; settings: 20 ppm active compound, nematicidal action by gall formation
Description: [table] To produce a suitable preparation of active compound, 1 part by weight of active compound is mixed with the stated amounts of solvent and emulsifier, and the concentrate is diluted with water to the desired concentration. Vessels are filled with sand, solution of active compound, Meloidogyne incognita egg/larvae suspension and lettuce seeds. The lettuce seeds germinate and the plants develop. On the roots, galls develop. After the desired period of time, the nematicidal action is determined in % by the formation of galls. 100% means that no galls have been found; 0% means that the number of galls on the treated plants corresponds to that of the untreated control.

Tetranychus urticae = assay: Tetranychus test (OP-resistant/dip treatment); assay type: in vivo; settings: 100 ppm active compound, bean plants dipped, OP-resistant
Description: [table] To produce a suitable preparation of active compound, 1 part by weight of active compound is mixed with the stated amounts of solvent and emulsifier, and the concentrate is diluted with emulsifier-containing water to the desired concentration. Bean plants (Phaseolus vulgaris) which are heavily infested by all stages of the greenhouse […] spider mite (Tetranychus urticae) are dipped into a preparation of active compound of the desired concentration. After the desired period of time, the activity in % is determined. 100% means that all spider mites have been killed; 0% means that none of the spider mites have been killed.

Aphis gossypii [1] = assay: Aphis gossypii test (leaf dip, cotton); assay type: in vivo; settings: 500 ppm active compound, cotton leaves dipped
Description: as §1, with “Cotton” for “Cabbage”, “(Gossypium hirsutum) which are heavily infested by the cotton aphids (Aphis gossypii)” for “(Brassica oleracea)”, “concentration.” for “concentration and are populated with larvae of the mustard beetle (Phaedon cochleariae) while leaves are still moist.”, “aphids” for “beetle larvae”

Myzus persicae [2] = assay: Myzus test (leaf dip, cabbage); assay type: in vivo; settings: 500 ppm active compound, cabbage leaves dipped
Description: as §1, with “oleracea) which are heavily infested by peach aphids (Myzus persicae)” for “oleracea)”, “concentration.” for “concentration and are populated with larvae of the mustard beetle (Phaedon cochleariae) while leaves are still moist.”, “aphids” for “beetle larvae”

log P determination = assay type: physicochemical
Myzus persicae [3] = assay: Test for persistency: Myzus persicae (root-systemic action); assay type: in vivo; settings: 4 ppm in soil, broad beans
Description: (§2) [table] To produce a suitable preparation of active compound, 1 part by weight of active compound is mixed with the stated amounts of solvent and emulsifier, and the concentrate is diluted with water to the desired concentration. The preparation of active compound is mixed intimately with the soil. The stated concentration refers to the amount of active compound per volume unit of soil (mg/l). The treated soil is filled into pots, and into these pots is planted pre-germinated broad beans. In this way, the active compound can be taken up from the soil into the roots of the plants and be transported into the leaves. After the stated number of days, peach aphids (Myzus persicae) are, in infection chambers, placed on the leaves. After the desired period of time, the kill in % is determined. 100% means that all aphids have been killed; 0% means that none of the aphids have been killed.

Echinochloa [4] = assay: Post-emergence test, Echinochloa; assay type: in vivo; settings: post-emergence/greenhouse; 250 g of ai/ha; after three weeks
Description: (§3) [table] To produce a suitable preparation of active compound, 1 part by weight of active compound is mixed with the stated amount of solvent, the stated amount of emulsifier is added and the concentrate is diluted with water to the desired concentration. Test plants of a height of 5-15 cm are sprayed with the preparation of active compound such that the particular amounts of active compound desired are applied per unit area. The concentration of the spray liquor is chosen such that the particular amounts of active compound desired are applied in 1000 l of water/ha. After three weeks, the degree of damage to the plants is rated in % damage in comparison to the development of the untreated control. The figures denote: • 0%=no effect (=like untreated control) • 100%=total destruction

Avena fatua [5] = assay: Post-emergence test, Avena fatua; assay type: in vivo; settings: post-emergence/greenhouse; 250 g of ai/ha; after three weeks
Description: as §3

Avena fatua [6] = assay: Pre-emergence test, Avena fatua; assay type: in vivo; settings: pre-emergence/greenhouse; 250 g of ai/ha; after three weeks
Description: (§4) [table] To produce a suitable preparation of active compound, 1 part by weight of active compound is mixed with the stated amount of solvent, the stated amount of emulsifier is added and the concentrate is diluted with water to the desired concentration. Seeds of the test plants are sown in normal soil. After about 24 hours, the soil is sprayed with the preparation of active compound such that the particular amounts of active compound desired are applied per unit area. The concentration of the spray liquor is chosen such that the particular amounts of active compound desired are applied in 1000 l of water/ha. After three weeks, the degree of damage to the plants is rated in % damage in comparison to the development of the untreated control. The figures denote: • 0%=no effect (like untreated control) • 100%=total destruction

Setaria [7] = assay: Pre-emergence test, Setaria; assay type: in vivo; settings: pre-emergence/greenhouse; 250 g of ai/ha; after three weeks
Description: as §4

Setaria [8] = assay: Post-emergence test, Setaria; assay type: in vivo; settings: post-emergence/greenhouse; 250 g of ai/ha; after three weeks
Description: as §3

Sinapis [9] = assay: Pre-emergence test, Sinapis; assay type: in vivo; settings: pre-emergence/greenhouse; 250 g of ai/ha; after three weeks
Description: as §4

Alopecurus [10] = assay: Post-emergence test, Alopecurus; assay type: in vivo; settings: post-emergence/greenhouse; 250 g of ai/ha; after three weeks
Description: as §3

Echinochloa [11] = assay: Pre-emergence test, Echinochloa; assay type: in vivo; settings: pre-emergence/greenhouse; 250 g of ai/ha; after three weeks
Description: as §4

Alopecurus [12] = assay: Pre-emergence test, Alopecurus; assay type: in vivo; settings: pre-emergence/greenhouse; 250 g of ai/ha; after three weeks
Description: as §4

Sinapis [13] = assay: Post-emergence test, Sinapis; assay type: in vivo; settings: post-emergence/greenhouse; 250 g of ai/ha; after three weeks
Description: as §3

Aphis gossypii [14] = assay: Test for persistency: Aphis gossypii (root-systemic action); assay type: in vivo; settings: 4 ppm in soil, cotton
Description: as §2, with “cotton at the cotyledon stage.” for “pre-germinated broad beans.”, “cotton” for “peach”, “(Aphis gossypii)” for “(Myzus persicae)”

Sugar beet = assay: Pre-emergence test, Sugar beet; assay type: in vivo; settings: pre-emergence/greenhouse; 250 g of ai/ha; after three weeks; crop
Description: as §4

[15] = pH 2.3, pH 2.3, read-out: logP (2.3)

SMILES: COC1CCC2(CC1)NC(=O)C(Cl)(c1cc(C)ccc1Cl)C2=O (stereo not drawn) [Ex. I-1-a-1]
- Kill rate in % after 7d (Phaedon cochleariae): 100%

SMILES: Cc1cc(Br)cc(Cl)c1C1(Cl)C(=O)NC2(CCCOC2)C1=O (stereo not drawn) [Ex. I-1-b-8]
- Kill rate in % after 7d (Phaedon cochleariae): 100%

SMILES: COC1CCC2(CC1)NC(=O)C(Cl)(c1cc(C)ccc1C)C2=O (stereo not drawn) [Ex. I-1-a-2]
- Kill rate in % after 14d (Meloidogyne incognita): 90%
- Kill rate in % after 7d (Tetranychus urticae): 98%
- Kill rate in % after 6d (Aphis gossypii [1]): 95%

SMILES: COC1CCC2(CC1)NC(=O)C(Cl)(c1c(Cl)cc(Cl)cc1Cl)C2=O (stereo not drawn) [Ex. I-1-a-42]
- Kill rate in % after 14d (Meloidogyne incognita): 90%
- Kill rate in % after 6d (Myzus persicae [2]): 95%

SMILES: COC1CCC2(CC1)NC(=O)C(Cl)(c1c(Cl)ccc(C)c1Cl)C2=O (stereo not drawn) [Ex. I-1-a-33]
- Kill rate in % after 14d (Meloidogyne incognita): 98%

SMILES: COC1CCC2(CC1)OC(=O)C(Cl)(c1cc(C)c(C)cc1C)C2=O (stereo not drawn) [Ex. I-2-a-1]
- logP (log P determination; pH 2.3, pH 2.3, read-out: log P (pH 2.3)): 4.07
- logP (log P determination; [15]): 4.07
- Kill rate in % after 7d (Myzus persicae [3]; infection after 7 d): 100%
- Kill rate in % after 7d (Myzus persicae [3]; infection after 21 d): 95%
- Kill rate in % after 7d (Myzus persicae [3]; infection after 35 d): 0%

SMILES: COC1CCC2(CC1)NC(=O)C(Cl)(c1ccc(C)cc1C(F)(F)F)C2=O (stereo not drawn) [Ex. I-1-a-16]
- Kill rate in % after 7d (Tetranychus urticae): 100%

SMILES: COC1CCC2(CC1)NC(=O)C(Cl)(c1ccc(OC(F)(F)F)cc1C)C2=O (stereo not drawn) [Ex. I-1-a-22]
- Kill rate in % after 7d (Tetranychus urticae): 100%

SMILES: COC1CCC2(CC1)NC(=O)C(Cl)(c1c(C)cc(Br)cc1C)C2=O (stereo not drawn) [Ex. I-1-a-9]
- % damage, Echinochloa (Echinochloa [4]): 100%
- % damage, Avena fatua (Avena fatua [5]): 90%
- % damage, Avena fatua (Avena fatua [6]): 80%
- Kill rate in % after 7d (Phaedon cochleariae): 90%
- % damage, Setaria (Setaria [7]): 100%
- % damage, Setaria (Setaria [8]): 100%
- % damage, Sinapis (Sinapis [9]): 90%
- % damage, Alopecurus (Alopecurus [10]): 95%
- % damage, Echinochloa (Echinochloa [11]): 100%
- % damage, Alopecurus (Alopecurus [12]): 100%
- % damage, Sinapis (Sinapis [13]): 80%

SMILES: Cc1cc(Cl)cc(Cl)c1C1(Cl)C(=O)NC2(CCOC(C)C2)C1=O (stereo not drawn) [Ex. I-1-c-1]
- Kill rate in % after 7d (Aphis gossypii [14]; infection after 7 d): 99%
- Kill rate in % after 7d (Aphis gossypii [14]; infection after 21 d): 99^ %
- Kill rate in % after 7d (Aphis gossypii [14]; infection after 35 d): 98^ %
- Kill rate in % after 6d (Aphis gossypii [1]): 90%
- Kill rate in % after 7d (Myzus persicae [3]; infection after 7 d): 100%
- Kill rate in % after 7d (Myzus persicae [3]; infection after 21 d): 100%
- Kill rate in % after 7d (Myzus persicae [3]; infection after 35 d): 100%

SMILES: COc1cc(C(F)(F)F)cc(Cl)c1C1(Cl)C(=O)NC2(CCC(OC)CC2)C1=O (stereo not drawn) [Ex. I-1-a-5]
- Kill rate in % after 7d (Tetranychus urticae): 95%

SMILES: CCc1cc(Cl)c(C2(Cl)C(=O)NC3(CCCOC3)C2=O)c(Br)c1 (stereo not drawn) [Ex. I-1-b-5]
- Kill rate in % after 7d (Tetranychus urticae): 90%

SMILES: Cc1cc(Cl)ccc1C1(Cl)C(=O)NC2(CCOCC2)C1=O (stereo not drawn) [Ex. I-1-c-4]
- Kill rate in % after 6d (Myzus persicae [2]): 95%

SMILES: COC1CCC2(CC1)NC(=O)C(Cl)(c1c(Cl)cc(Cl)c(C)c1Cl)C2=O (stereo not drawn) [Ex. I-1-a-27]
- Kill rate in % after 14d (Meloidogyne incognita): 100%
- Kill rate in % after 6d (Myzus persicae [2]): 90%

SMILES: Cc1cc(Br)cc(C)c1C1(Cl)C(=O)NC2(CCCOC2)C1=O (stereo not drawn) [Ex. I-1-b-1]
- Kill rate in % after 7d (Tetranychus urticae): 95%

SMILES: Cc1cc(Cl)cc(Br)c1C1(Cl)C(=O)NC2(CCCOC2)C1=O (stereo not drawn) [Ex. I-1-b-9]
- Kill rate in % after 7d (Phaedon cochleariae): 100%

SMILES: CCc1cc(Cl)cc(Cl)c1C1(Cl)C(=O)NC2(CCC(OC)CC2)C1=O (stereo not drawn) [Ex. I-1-a-46]
- % damage, Echinochloa (Echinochloa [4]): 100%
- % damage, Avena fatua (Avena fatua [5]): 100%
- % damage, Avena fatua (Avena fatua [6]): 100%
- % damage, Sugar beet (Sugar beet): 0%
- % damage, Setaria (Setaria [7]): 100%
- % damage, Setaria (Setaria [8]): 100%
- Kill rate in % after 6d (Myzus persicae [2]): 98%
- % damage, Alopecurus (Alopecurus [10]): 100%
- % damage, Echinochloa (Echinochloa [11]): 100%
- % damage, Alopecurus (Alopecurus [12]): 95%
- % damage, Sinapis (Sinapis [13]): 70%

SMILES: CCOC1CCC2(CC1)NC(=O)C(Cl)(c1cc(C)ccc1Br)C2=O (stereo not drawn) [Ex. I-1-a-41]
- Kill rate in % after 7d (Phaedon cochleariae): 100%
- Kill rate in % after 7d (Tetranychus urticae): 95%

SMILES: COC1CCC2(CC1)OC(=O)C(c1cc(C)c(C)cc1C)([N+](=O)[O-])C2=O (stereo not drawn) [I-2-a-2]
- log P (log P determination; isomer mixture, two values): 4.42
- logP (2.3) (log P determination; pH 2.3): 4.42
- logP (log P determination; pH 2.3, isomer mixture, two values, read-out: log P): 4.17
- logP (log P determination; [15]): 4.17
